Assay results as given in ChEMBL document CHEMBL1135016, “Inhibition of amine oxidases activity by 1-acetyl-3,5-diphenyl-4,5-dihydro-(1H)-pyrazole derivatives” (Bioorg Med Chem Lett, 2002).

Assays:
Monoamine oxidase = biological target: T1, Monoamine oxidase (Bos taurus, UniProt P56560+P21398); experiment: Inhibitory activity against Monoamine oxidase from Bovine brain mitochondria
T1 sequence (P56560 whole entry): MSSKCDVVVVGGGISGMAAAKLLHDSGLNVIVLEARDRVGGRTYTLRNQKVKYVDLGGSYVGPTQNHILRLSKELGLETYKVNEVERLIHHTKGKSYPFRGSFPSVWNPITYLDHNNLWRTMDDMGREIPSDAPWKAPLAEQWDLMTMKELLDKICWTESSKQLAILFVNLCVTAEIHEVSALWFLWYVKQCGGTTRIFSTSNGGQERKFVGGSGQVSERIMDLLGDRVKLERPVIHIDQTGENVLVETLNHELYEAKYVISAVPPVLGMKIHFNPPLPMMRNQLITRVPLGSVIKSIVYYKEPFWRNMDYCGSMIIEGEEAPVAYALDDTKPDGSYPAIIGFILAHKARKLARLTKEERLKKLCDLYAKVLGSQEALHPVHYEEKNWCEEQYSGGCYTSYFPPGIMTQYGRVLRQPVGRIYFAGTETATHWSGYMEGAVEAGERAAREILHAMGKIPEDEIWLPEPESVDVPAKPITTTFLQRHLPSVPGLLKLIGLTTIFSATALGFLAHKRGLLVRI
T1 sequence (P21398 whole entry): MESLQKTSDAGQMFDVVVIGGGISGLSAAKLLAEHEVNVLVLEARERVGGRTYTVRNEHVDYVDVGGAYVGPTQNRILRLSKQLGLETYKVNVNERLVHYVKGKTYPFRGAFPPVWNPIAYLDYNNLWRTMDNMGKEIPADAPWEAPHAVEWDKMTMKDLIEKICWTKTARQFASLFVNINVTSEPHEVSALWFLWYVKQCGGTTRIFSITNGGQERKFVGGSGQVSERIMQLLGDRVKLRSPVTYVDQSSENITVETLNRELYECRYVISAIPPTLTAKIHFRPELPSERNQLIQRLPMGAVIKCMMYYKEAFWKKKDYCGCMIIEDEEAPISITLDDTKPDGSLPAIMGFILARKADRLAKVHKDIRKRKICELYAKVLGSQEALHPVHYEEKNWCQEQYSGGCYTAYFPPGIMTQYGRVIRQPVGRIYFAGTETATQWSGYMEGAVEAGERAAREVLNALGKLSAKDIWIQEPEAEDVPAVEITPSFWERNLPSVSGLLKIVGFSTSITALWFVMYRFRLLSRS

[1] = biological target: T2, Amine oxidase [flavin-containing] B (Homo sapiens, UniProt P27338); experiment: Inhibiting activity of the compound was determined against human Monoamine oxidase B
T2 sequence (P27338 whole entry): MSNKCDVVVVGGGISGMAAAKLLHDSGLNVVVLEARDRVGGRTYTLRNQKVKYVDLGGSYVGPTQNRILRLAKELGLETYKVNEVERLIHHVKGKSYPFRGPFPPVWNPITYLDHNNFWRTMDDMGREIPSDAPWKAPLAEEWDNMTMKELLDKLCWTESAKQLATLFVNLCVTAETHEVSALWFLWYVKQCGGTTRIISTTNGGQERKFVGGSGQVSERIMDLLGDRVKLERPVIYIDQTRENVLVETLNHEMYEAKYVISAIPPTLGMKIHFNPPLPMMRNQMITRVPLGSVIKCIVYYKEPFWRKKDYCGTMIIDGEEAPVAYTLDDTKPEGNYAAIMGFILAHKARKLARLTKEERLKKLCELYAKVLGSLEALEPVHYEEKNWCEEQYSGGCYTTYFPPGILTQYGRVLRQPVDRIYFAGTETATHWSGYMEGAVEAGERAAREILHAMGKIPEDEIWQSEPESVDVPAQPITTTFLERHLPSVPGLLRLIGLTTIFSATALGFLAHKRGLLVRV

[2] = Inhibitory activity against Serum amine oxidase
[3] = biological target: T3, Amine oxidase [flavin-containing] A (Bos taurus, UniProt P21398); experiment: Inhibiting activity of the compound was determined against bovine Monoamine oxidase A
T3 sequence (P21398 whole entry): T1 sequence (P21398 whole entry)

[4] = Inhibitory activity against Swine kidney diamine oxidase (SKDAO); No inhibition, corresponding to value >10e-4
[5] = Inhibitory activity against Serum amine oxidase; No inhibition, corresponding to value >10e-4

SMILES: CC(=O)N1N=C(c2ccccc2O)CC1c1cccc(C)c1 (stereo unspecified)
- Ki (Monoamine oxidase): 5500 nM

SMILES: CC(=O)N1N=C(c2ccc(O)cc2O)CC1c1cccc(C)c1 (stereo unspecified)
- Ki (Monoamine oxidase): 50 nM
- Ki [1]: 38 nM
- Ki [2]: 10000 nM
- Ki [3]: 13 nM

SMILES: CC(=O)N1N=C(c2ccccc2O)CC1c1ccccc1C (stereo unspecified)
- Ki (Monoamine oxidase): 300000 nM
- Ki [2]: 57000 nM

SMILES: CC(=O)N1N=C(c2ccc(O)cc2O)CC1c1ccccc1C (stereo unspecified)
- Ki (Monoamine oxidase): 80 nM
- Ki [1]: 30 nM
- Ki [3]: 52 nM

SMILES: CC(=O)N1N=C(c2ccccc2)CC1c1cccc(C)c1 (stereo unspecified)
- Ki (Monoamine oxidase): 200000 nM
- Ki [4]: No inhibition
- Ki [5]: No inhibition

SMILES: CC(=O)N1N=C(c2ccccc2)CC1c1ccc(Cl)cc1 (stereo unspecified)
- Ki (Monoamine oxidase): 6000 nM
- Ki [4]: No inhibition
- Ki [5]: No inhibition
